Data on two molecules can be found in patent US20090105562A1, “SYSTEM AND METHODS FOR SCREENING OR ANALYZING TARGETS” (TAIPEI VETERANS GENERAL HOSPITAL, priority 2007, published 2009).

Assay type in all cases: cell-based, rat
In test [1] the test system is LPS-treated NSCs. In words: Cell survival rate of LPS-treated NSCs. As for the experimental part:
(§1) IM was purchased from Sigma Chem. Co., St Louis, Mo., USA. NSCs were seeded on 24-well plates at a density of 2×10^4 cells/well in medium, followed by methyl thiazol tetrazolium assay (MTT assay) (Sigma-Aldrich Co., St Louis, Mo., USA) for cell viability. NSCs were incubated with 0.25 mg/ml MTT for 4 hours at 37° C. and the reaction was terminated by the addition of 100% isopropanol. The amount of MTT fromazon product was determined using a microplate reader and the absorbance was measured at 560 nm (SpectraMax 250, Molecular Devices, Sunnyvale, Calif., USA). NSCs were exposed to 0, 1, 2, 5, 10, 20, 30, 40, 50, 100, 200, and 300 μM of IM for 1, 3, 5, and 7 days, respectively. The activities of caspases 8 and 3 (Medical and Biological Laboratories Co., Ltd., Nagoya, Japan), and the concentration of IL-6, IL-1 and TNF-α (Pharmingen, San Diego, Calif., USA) were determined by ELISA kits and quantified by reading at 490 nm (MRX; Dynatech Laboratories, Chantilly, Va., USA). Each individual sample was analyzed in triplicate.
Double-stranded, short interfering RNA (siRNA) of BDNF and Bcl-2 were chemically synthesized by Ambion Inc., Austin, Tex., USA). The sense and antisense sequences of BDNF were designed as follows: Sense: […]tt; Antisense: AGCTTAAAAAGAG CTGtt, starting from nucleotide 137 of the Bcl-2 sequence (accession number L14680). The sense and antisense sequences of Bcl-2 were designed as follows: Sense: GCGCUGGAUAUAACUUCUUtt; Antisense: AAGAAGUUAUAUC CAGCGCtt, starting from nucleotide 137 of the Bcl-2 sequence (accession number L14680). In this test, the siRNA control used was siRNA-Cy3 (QIAGEN; sense sequence: UUCUCCGAACGUGU CACGUdTdT-3′-Cy3 and the complement 5′-ACGUGACACGUUCGGAGAAdTdT-3′-Cy3) as an irrelevant control. The transfection of siRNA was performed using Lipofectamine 2000 (Invitrogen, Carlsbad, Calif., USA) according to the manufacturer's instructions. In brief, cells were harvested with 0.25% trypsin, 1 mM ethylenediaminetetraacetic acid (EDTA) in phosphate buffered saline (PBS) without Ca^2+ and Mg^2+, and plated in six-well plates at 10^5 per cm^2. […]

The test system of test [2] is NSCs. Briefly: Triple-staining immunofluorescent assay of NSC differentiation into serotoninergic neurons. As to the method: All animals used were treated in accordance with the Animal Care and Use Committee guideline at Taipei Veterans General Hospital. The protocol of the present study was also approved by the committee. Adult Sprague-Dawley (SD) rats (8 weeks old, 250 g) were anesthetized with intraperitoneal phenobarbital (Sigma, USA), and the location of their brains was mapped. Then, the brain was surgically separated from the hippocampus region. In brief, tissues from the hippocampus of adult rats were dissociated and incubated in Hank's balanced salt solution (HBSS) containing collagenase (78 units/ml) and hyaluronidase (38 units/ml) for 10 minutes at 37° C. The tissues were then mechanically dissected and placed in a trypsin solution (1.33 mg/ml) at 37° C. for another 10 minutes. Dissociated cells were then centrifuged at […] for 5 minutes. Then the enzyme solution was removed and replaced with serum-free culture media composed of Dulbecco Modified Eagle Medium (DMEM) and F-12 nutrient mixture (1:1) including insulin (25 μg/mL), transferrin (100 μg/mL), progesterone (20 nM), putrescine (60 μM), sodium selenite (30 nM), human recombinant epidermal growth factor (EGF) 20 ng/mL, and fibroblast growth factor-basic (bFGF) (20 ng/mL) (R&D Systems, Minneapolis, Minn., USA). Viable cells were counted by trypan blue exclusion and plated as 5000 cells/200 μL per well in 96-well plates (Corning Inc, Acton, Mass., USA) with no substrate pretreatment. The IM was purchased from Sigma Chem. Co., St Louis, Mo., USA. The 0.1% dimethyl sulfoxide (DMSO) (Sigma Chem. Co., St Louis, Mo., USA) was used as a vehicle control in all procedures and studies. For differentiation protocol, the neurosphere NSCs were plated on poly-L-ornithine-coated (15 μg/mL) glass coverslips in individual wells of 24-well plates (1.0 mL/well) in DMEM/F-12 medium containing 2% fetal calf serum (FCS) (Gibcol-BRL, Gaitherburg, Md., USA) and withdrawing EGF and bFGF At the time of NSCs seeding, vehicle control or IM treatment was concurrently added.
An avidin-biotin complex method was used for the immunohistochemical staining in the differentiated NSCs. Following washes with the 3% hydrogen peroxide, sodium azide and antigens were retrieved using a microwave. […] Immunoreactive signals were detected with a mixture of biotinylated rabbit anti-mouse IgG and Fluoresave (Calbiochem, La Jolla, Calif., USA) under confocal microscopy (Olympus, FV300). Each individual sample was analyzed in triplicate. […] The percentage of TUNEL-positive cells was measured by the average of 6 different areas as compared to the total cell number in the same section slide (under a×200 power field of a light microscope).

Test [3] concerns LPS-treated NSCs. Briefly: LPS-induced apoptotic activity in NSCs, caspase 8 and 3 ELISA. As for the experimental part:
as §1
Double-stranded, short interfering RNA (siRNA) of BDNF and Bcl-2 were chemically synthesized by Ambion Inc., Austin, Tex., USA). The sense and antisense sequences of BDNF were designed as follows: Sense: […]tt; Antisense: AGCTTAAAAAGAG CTGtt, starting from nucleotide 137 of the Bcl-2 sequence (accession number L14680). The sense and antisense sequences of Bcl-2 were designed as follows: Sense: GCGCUGGAUAUAACUUCUUtt; Antisense: AAGAAGUUAUAUC CAGCGCtt, starting from nucleotide 137 of the Bcl-2 sequence (accession number L14680). In this test, the siRNA control used was siRNA-Cy3 (QIAGEN; sense sequence: UUCUCCGAACGUGU CACGUdTdT-3′-Cy3 and the complement 5′-ACGUGACACGUUCGGAGAAdTdT-3′-Cy3) as an irrelevant control. The transfection of siRNA was performed using Lipofectamine 2000 (Invitrogen, Carlsbad, Calif., USA) according to the manufacturer's instructions. In brief, cells were harvested with 0.25% trypsin, 1 mM ethylenediaminetetraacetic acid (EDTA) in phosphate buffered saline (PBS) without Ca^2+ and Mg^2+, and plated in six-well plates at 10^5 per cm^2. Then 3.5 μl siRNA (100 μM solution) was mixed with 125 μl serum-free culture medium for 5 minutes at room temperature. During this incubation period, 5 μl of Lipofectamine 2000 was diluted in 125 μl serum-free culture medium. These two mixtures were combined, mixed gently, and incubated for 20 minutes at room temperature for complex formation. This 250 μl of siRNA-Lipofectamine mixture was then added into the cells in a final volume of 2.5 ml per well. The transfected cells were cultured and fed daily with fresh medium until they were assayed.
For orientation: An ELISA detects its analyte on a solid surface through an enzyme-linked reagent.

[4] abbreviates: Day 7 culture of IM-treated vs non IM-treated NSCs, p<0.05.
Where [5] appears, read: LPS (100 ng/ml) exposure, Day 7 IM-treated vs without IM, p<0.05.
[6] abbreviates: agent added, Day 7 culture of IM-treated NSCs.

Turning to `CN(C)CCCN1c2ccccc2CCc2ccccc21` [IM, imipramine], the “cell survival rate in LPS-treated NSCs” value in test [1] (vs only LPS-treated NSCs, LPS 100 ng/ml) was “significantly increases”. Further, in test [2] (setting [4]), the “percentage of MAP-2-positive cells” value is “significantly increased” and the “percentage of serotonin (5-HT)-positive cells” value was “significantly increased”. In test [3] (setting [5]), the “apoptotic activity of caspase 3” value is recorded as “significantly decreased” and the “apoptotic activity of caspase 8” value is recorded as “significantly decreased”.
Consider `N#CC(=C(/N)Sc1ccccc1N)/C(C#N)=C(\N)Sc1ccccc1N` [U0126], for which, in test [1] (after added treatment with the agent), the “cell viability in LPS-treated NSCs with IM” value is recorded as “dramatically decreased”. In test [2] (setting [6]), the “percentage of MAP-2-positive cells in IM-treated NSCs” value is on record as “significantly decrease” and the “percentage of serotonin (5-HT)-positive cells in IM-treated NSCs” value is given as “significantly decrease”. In addition, the “apoptotic activities (caspase 8, caspase 3 and TUNEL assays) in LPS- and IM-treated NSCs” value in test [3] (agent added to LPS- and IM-treated NSCs, U0126 40 μM) is “significantly enhanced”.
